Target: T1, BcEPSPS (5-enolpyruvylshikimate-3-phosphate synthase)
T1 construct: gene EPSPS; full-length coding region (518 aa) in pET-32a, His-tagged fusion BcEPSPS-His, expressed in E. coli BL21
Test: malachite green phosphate-release enzyme assay with purified recombinant BcEPSPS; Ki at […] S3P (IC50 […] also reported)
Format: biochemical, Baphicacanthus cusia

With `O=C(O)CNCP(=O)(O)O` [glyphosate] the Ki was 46 nM.
